Measured values reported in patent US9126984B2, “4-(indol-3-yl)-pyrazole derivatives, pharmaceutical compositions and methods for use” (ITEOS THERAPEUTICS, priority 2013, dated 2015).

Tests used:
[1] = target: T1, human recombinant TDO2 enzyme (Homo sapiens, UniProt P48775); assay: Assay for TDO2 enzymatic activity determination; type: biochemical; settings: human recombinant TDO2, L-Trp 1 mM, room temperature one hour, kynurenine absorbance at 480 nm
T1 construct: made in house
Experimental: To measure the TDO2 activity, the reaction mixture contained (final concentrations) potassium phosphate buffer (50 mM, pH 7.5), ascorbic acid (0.25 M), methylene blue (0.125 μM), catalase (40 units/mL, from bovine liver, Sigma), and human recombinant TDO2 enzyme (prepared as described in Dolusic et al. J. Med. Chem.; 2011, 54, 5320-5334; 0.9 μg) without or with the compounds of the present invention embodiments at the indicated concentrations (total volume 112.5 μL). The reaction was initiated by the addition of 37.5 μL of L-Trp (final concentration 1 mM) at room temperature. The reaction was conducted at room temperature during one hour and stopped by the addition of 30 μL of 30% (w/v) trichloroacetic acid.
To convert N-formylkynurenine into kynurenine, the reaction mixture was incubated at 65° C. for 30 min. Then 150 μL of the reaction mixture was mixed with 120 μL, of 2.5% (w/v) 4-(dimethylamino)-benzaldehyde in acetic acid and incubated for 5 min at room temperature. Kynurenine concentrations were determined by measuring the absorbance at 480 nm. A standard curve was made with pure kynurenine. The TDO activity was measured as described above using ten serial concentrations of certain embodiments of the compounds of the present invention. Data were fitted using the Prism software (GraphPad Software, Inc.).

[2] = target: T2, murine mastocytoma P815 cells overexpressing hTDO2 (Homo sapiens, UniProt P48775); assay: Cellular assay for TDO2 activity determination; type: cell-based; settings: P815 cells overexpressing hTDO2, overnight incubation at 37° C., kynurenine absorbance at 480 nm
T2 construct: expressed in transfected cells; host or cells: murine mastocytoma P815 cells
T2 sequence (P48775 whole entry): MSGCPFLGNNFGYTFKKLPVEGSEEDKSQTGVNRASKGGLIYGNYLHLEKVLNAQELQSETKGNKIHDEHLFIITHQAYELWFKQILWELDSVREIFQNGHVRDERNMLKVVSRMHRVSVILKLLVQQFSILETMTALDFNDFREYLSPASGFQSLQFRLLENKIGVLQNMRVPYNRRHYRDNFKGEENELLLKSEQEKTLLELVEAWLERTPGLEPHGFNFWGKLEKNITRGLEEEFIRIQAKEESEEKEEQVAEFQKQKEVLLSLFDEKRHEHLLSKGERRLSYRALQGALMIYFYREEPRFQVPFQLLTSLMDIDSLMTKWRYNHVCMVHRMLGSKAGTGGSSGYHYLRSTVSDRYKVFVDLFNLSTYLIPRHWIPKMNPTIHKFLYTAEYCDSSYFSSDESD
Experimental: The assay was performed in 96-well flat bottom plates seeded with murine mastocytoma P815 cells overexpressing hTDO2 (prepared as described in Pilotte et al., PNAS, 2012, 109(7), 2497-2502), at a concentration of 5×10^4 cells/well in a final volume of 200 μL. To determine TDO or IDO activity, the cells were incubated overnight at 37° C. at 5% CO2 in IMDM (Invitrogen) supplemented with 2% FBS and 2% penicillin/streptomycin in the presence of the compounds of the present invention, at different concentrations.
The plates were then centrifuged 5 min at 1000 rpm, and 100 μL of the supernatant were collected in a conical plate, 30 uL of TCA 30% were added and a further centrifugated at 3000×g for 10 minutes. 100 μL of the supernatant were collected in a flat bottomed plate and 100 μL of 2% (w/v) 4-(dimethylamino)-benzaldehyde in acetic acid and incubated for 5 min at room temperature. Kynurenine concentrations were determined by measuring the absorbance at 480 nm. A standard curve was made with pure kynurenine. The TDO activity was measured as described above using ten serial concentrations of the compounds of the present invention. Data were fitted using the Prism software (GraphPad Software, Inc.).

T1 sequence (P48775 whole entry): as above

O=C(CO)N1CCC(n2cc(-c3c[nH]c4cc(F)ccc34)cn2)CC1 [Example 84, 1-(4-(4-(6-fluoro-1H-indol-3-yl)-1H-pyrazol-1-yl)piperidin-1-yl)-2-hydroxyethanone]
IC50 [1]: 1000 to 10000 nM
melting point: 99.9 to 102.1 °C

CC(=O)NCCn1cc(-c2c[nH]c3cc(F)ccc23)cn1 [Example 21, N-(2-(4-(6-fluoro-1H-indol-3-yl)-1H-pyrazol-1-yl)ethyl)acetamide]
IC50 [1]: 1000 to 10000 nM
melting point: 179.5 to 180.8 °C

CC(C)C(=O)N1CCC(n2cc(-c3c[nH]c4cc(F)ccc34)cn2)CC1 [Example 86, 1-(4-(4-(6-fluoro-1H-indol-3-yl)-1H-pyrazol-1-yl)piperidin-1-yl)-2-methylpropan-1-one]
IC50 [1]: 1000 to 10000 nM
melting point: 210.2 to 211 °C

O=C(C1CC1)N1CCC(n2cc(-c3c[nH]c4cc(F)ccc34)cn2)CC1 [Example 88, cyclopropyl(4-(4-(6-fluoro-1H-indol-3-yl)-1H-pyrazol-1-yl)piperidin-1-yl)methanone]
IC50 [1]: 1000 to 10000 nM
melting point: 190.7 to 191.4 °C

CN(C)CC(=O)N1CCC(n2cc(-c3c[nH]c4cc(F)ccc34)cn2)CC1 [Example 83, 2-(dimethylamino)-1-(4-(4-(6-fluoro-1H-indol-3-yl)-1H-pyrazol-1-yl)piperidin-1-yl)ethanone]
IC50 [1]: 1000 to 10000 nM
melting point: 193.7 to 196.1 °C

CN1CCC(Cn2cc(-c3c[nH]c4cc(F)ccc34)cn2)CC1 [Example 53, 6-fluoro-3-(1-((1-methylpiperidin-4-yl)methyl)-1H-pyrazol-4-yl)-1H-indole]
IC50 [1]: < 1000 nM
IC50 [2]: < 1000 nM

OCCN1CCC(Cn2cc(-c3c[nH]c4cc(F)ccc34)cn2)CC1 [Example 47, 2-(4-((4-(6-fluoro-1H-indol-3-yl)-1H-pyrazol-1-yl)methyl)piperidin-1-yl)ethanol]
IC50 [1]: < 1000 nM
IC50 [2]: 1000 to 10000 nM

CN(C)C(=O)Cn1cc(-c2c[nH]c3cc(F)ccc23)cn1 [Example 40, 2-(4-(6-fluoro-1H-indol-3-yl)-1H-pyrazol-1-yl)-N,N-dimethylacetamide]
IC50 [1]: 1000 to 10000 nM
IC50 [2]: 1000 to 10000 nM

FCCN1CCC(Cn2cc(-c3c[nH]c4cc(F)ccc34)cn2)CC1 [Example 46, 6-fluoro-3-(1-((1-(2-fluoroethyl)piperidin-4-yl)methyl)-1H-pyrazol-4-yl)-1H-indole]
IC50 [1]: < 1000 nM
IC50 [2]: < 1000 nM

Fc1ccc2c(-c3cn[nH]c3)c[nH]c2c1 [Example 70, 6-fluoro-3-(1H-pyrazol-4-yl)-1H-indole]
IC50 [1]: < 1000 nM
IC50 [2]: < 1000 nM

CC(=O)N1CCC(Cn2cc(-c3c[nH]c4cc(F)ccc34)cn2)CC1 [Example 51, 1-(4-((4-(6-fluoro-1H-indol-3-yl)-1H-pyrazol-1-yl)methyl)piperidin-1-yl)ethanone]
IC50 [1]: 1000 to 10000 nM
IC50 [2]: < 1000 nM

Fc1ccc2c(-c3cnn(C4CNC4)c3)c[nH]c2c1 [Example 2, 3-(1-(azetidin-3-yl)-1H-pyrazol-4-yl)-6-fluoro-1H-indole]
IC50 [1]: < 1000 nM
IC50 [2]: < 1000 nM

OC(CN1CCC(Cn2cc(-c3c[nH]c4cc(F)ccc34)cn2)CC1)C(F)(F)F (stereo not drawn) [Example 48, 1,1,1-trifluoro-3-(4-((4-(6-fluoro-1H-indol-3-yl)-1H-pyrazol-1-yl)methyl)piperidin-1-yl)propan-2-ol]
IC50 [1]: < 1000 nM
IC50 [2]: < 1000 nM

CC(Cn1cc(-c2c[nH]c3cc(F)ccc23)cn1)C(N)=O (single isomer, unassigned) [Example 36, 3-(4-(6-fluoro-1H-indol-3-yl)-1H-pyrazol-1-yl)-2-methylpropanamide]
IC50 [1]: 1000 to 10000 nM
IC50 [2]: < 1000 nM

Fc1cc2[nH]cc(-c3cn[nH]c3)c2cc1F [Example 71, 5,6-difluoro-3-(1H-pyrazol-4-yl)-1H-indole]
IC50 [1]: < 1000 nM
IC50 [2]: < 1000 nM

Fc1ccc2c(-c3cnn(CCN4CCNCC4)c3)c[nH]c2c1 [Example 27, 6-fluoro-3-(1-(2-(piperazin-1-yl)ethyl)-1H-pyrazol-4-yl)-1H-indole]
IC50 [1]: 1000 to 10000 nM
IC50 [2]: < 1000 nM

Fc1ccc2c(-c3cnn(CC4CCN(C5CC5)CC4)c3)c[nH]c2c1 [Example 52, 3-(1-((1-cyclopropylpiperidin-4-yl)methyl)-1H-pyrazol-4-yl)-6-fluoro-1H-indole]
IC50 [1]: < 1000 nM
IC50 [2]: < 1000 nM

Fc1ccc2c(-c3cnn(-c4ccncc4)c3)c[nH]c2c1 [Example 113, 6-fluoro-3-(1-(pyridin-4-yl)-1H-pyrazol-4-yl)-1H-indole]
IC50 [1]: < 1000 nM
IC50 [2]: < 1000 nM

COCC(=O)N1CCC(n2cc(-c3c[nH]c4cc(F)ccc34)cn2)CC1 [Example 85, 1-(4-(4-(6-fluoro-1H-indol-3-yl)-1H-pyrazol-1-yl)piperidin-1-yl)-2-methoxyethanone]
IC50 [1]: 1000 to 10000 nM
IC50 [2]: 1000 to 10000 nM

Fc1ccc2c(-c3cnn(-c4ccccn4)c3)c[nH]c2c1 [Example 111, 6-fluoro-3-(1-(pyridin-2-yl)-1H-pyrazol-4-yl)-1H-indole]
IC50 [1]: < 1000 nM
IC50 [2]: < 1000 nM

CN1CCN(CCn2cc(-c3c[nH]c4cc(F)ccc34)cn2)CC1 [Example 19, 6-fluoro-3-(1-(2-(4-methylpiperazin-1-yl)ethyl)-1H-pyrazol-4-yl)-1H-indole]
IC50 [1]: 1000 to 10000 nM
IC50 [2]: < 1000 nM

Fc1ccc2c(-c3cnn(CC4CCNCC4)c3)c[nH]c2c1 [Example 43, 6-fluoro-3-(1-(piperidin-4-ylmethyl)-1H-pyrazol-4-yl)-1H-indole]
IC50 [1]: < 1000 nM
IC50 [2]: < 1000 nM

NC(=O)NCCn1cc(-c2c[nH]c3cc(F)ccc23)cn1 [Example 22, 1-(2-(4-(6-fluoro-1H-indol-3-yl)-1H-pyrazol-1-yl)ethyl)urea]
IC50 [1]: 1000 to 10000 nM
IC50 [2]: 1000 to 10000 nM

CC(C)(C)C(=O)N1CCC(n2cc(-c3c[nH]c4cc(F)ccc34)cn2)CC1 [Example 87, 1-(4-(4-(6-fluoro-1H-indol-3-yl)-1H-pyrazol-1-yl)piperidin-1-yl)-2,2-dimethylpropan-1-one]
IC50 [1]: 1000 to 10000 nM
melting point: 231 to 232 °C

CN(C)C(=O)N1CCC(n2cc(-c3c[nH]c4cc(F)ccc34)cn2)CC1 [Example 90, 4-(4-(6-fluoro-1H-indol-3-yl)-1H-pyrazol-1-yl)-N,N-dimethylpiperidine-1-carboxamide]
IC50 [1]: 1000 to 10000 nM
melting point: 223 to 224.6 °C

NC(=O)[C@H]1C[C@@H](n2cc(-c3c[nH]c4cc(F)ccc34)cn2)C1 [Example 61, (1S,3R)-3-(4-(6-fluoro-1H-indol-3-yl)-1H-pyrazol-1-yl)cyclobutanecarboxamide]
IC50 [1]: 1000 to 10000 nM
IC50 [2]: < 1000 nM

Fc1ccc2c(-c3cnn(-c4cccnn4)c3)c[nH]c2c1 [Example 107, 6-fluoro-3-(1-(pyridazin-3-yl)-1H-pyrazol-4-yl)-1H-indole]
IC50 [1]: 1000 to 10000 nM
IC50 [2]: < 1000 nM

CS(=O)(=O)CCn1cc(-c2c[nH]c3cc(F)c(F)cc23)cn1 [Example 32, 5,6-difluoro-3-(1-(2-(methylsulfonyl)ethyl)-1H-pyrazol-4-yl)-1H-indole]
IC50 [1]: 1000 to 10000 nM
melting point: 170.6 to 171.9 °C

CS(=O)(=O)NCCn1cc(-c2c[nH]c3cc(F)ccc23)cn1 [Example 25, N-(2-(4-(6-fluoro-1H-indol-3-yl)-1H-pyrazol-1-yl)ethyl)methanesulfonamide]
IC50 [1]: 1000 to 10000 nM
IC50 [2]: < 1000 nM

Cn1cc(-c2c[nH]c3cc(F)ccc23)cn1 [Example 73, 6-fluoro-3-(1-methyl-1H-pyrazol-4-yl)-1H-indole]
IC50 [1]: < 1000 nM
IC50 [2]: < 1000 nM

OCCn1cc(-c2c[nH]c3cc(F)ccc23)cn1 [Example 26, 2-(4-(6-fluoro-1H-indol-3-yl)-1H-pyrazol-1-yl)ethanol]
IC50 [1]: < 1000 nM
IC50 [2]: < 1000 nM

Fc1ccc2c(-c3cnn(-c4ccnnc4)c3)c[nH]c2c1 [Example 110, 6-fluoro-3-(1-(pyridazin-4-yl)-1H-pyrazol-4-yl)-1H-indole]
IC50 [1]: 1000 to 10000 nM
IC50 [2]: 1000 to 10000 nM

Nc1ccc(-n2cc(-c3c[nH]c4cc(F)ccc34)cn2)nn1 [Example 109, 6-(4-(6-fluoro-1H-indol-3-yl)-1H-pyrazol-1-yl)pyridazin-3-amine]
IC50 [1]: 1000 to 10000 nM
IC50 [2]: < 1000 nM
